Values quoted from earlier work as cited in US20120083452A1, “Topical Anesthetic Uses of Szeto-Schiller Peptides” (priority 2010, published 2012).
Square brackets hold non-standard residues; d marks the D form. Ends that are not written are not given here. Dmt = Cc1cc(O)cc(C)c1C[C@H](N)C(=O)O

Legend:
[1] = compared with SS-02
mice = mice studies
isolated mitochondria = details: for MPP+-induced inhibition of oxygen consumption: MPP+ (1-methyl-4-phenylpyridium)
LDL = details: compared with SS-02

Substance | scavenging H2O2 [1] | treatment of Parkinson's Disease (PD) or Amyotrophic Lateral Sclerosis (ALS) (mice) | MPP+-induced inhibition of ATP production (isolated mitochondria) | MPP+-induced mitochondrial swelling (isolated mitochondria) | MPP+-induced inhibition of oxygen consumption (isolated mitochondria) | inhibiting LDL oxidation (LDL)
D-Arg-2′,6′-Dmt-Lys-Phe-NH2 ([dR][Dmt]KF-NH2) [SS-31] | as effective as SS-02 | may be effective | prevented | prevented | prevented | as effective as SS-02
Phe-D-Arg-Phe-Lys-NH2 (F[dR]FK-NH2; N-terminus assumed; SMILES N=C(N)NCCC[C@@H](NC(=O)[C@@H](N)Cc1ccccc1)C(=O)N[C@@H](Cc1ccccc1)C(=O)N[C@@H](CCCCN)C(N)=O) [SS-20] | eliminated the scavenging ability | may be effective | prevented | prevented | prevented | –
